The values that follow come from patent publication US11191855B2, “1,7-diaryl-1,6-heptadiene-3,5-dione derivatives, methods for the production and use thereof” (UNIVERSITÄTSKLINIKUM REGENSBURG, priority 2015, dated 2021).

The subject of assay [1] is S. aureus ATCC 25923. Put plainly: Phototoxicity test c.2) (BlueV light source, emission maximum approx. 420 nm, CFU count). In kind it is cell-based, Staphylococcus aureus. The following applies: for log reduction at 10 µM / log reduction at 50 µM: Staphylococcus aureus, ATCC25923, light or radiation study, 5 min; for log reduction at 10 µM: read-out: Effectiveness against S. aureus: Reduction in CFU in log10 at concentration of 10 μM; for log reduction at 50 µM: read-out: Effectiveness against S. aureus: Reduction in CFU in log10 at concentration of 50 μM. The method, then:
A sample of the bacterial cell Staphylococcus. aureus (ATCC number: 25923) or Escherichia. coli (ATCC number: 25922) was removed from a cryo-freeze culture and cultured under aerobic conditions at 37° C. and 175 rpm overnight in an orbital shaker (MAXQ4000, Thermo Scientific, Dubuque, Iowa, USA). Growth was carried out in 20 mL Todd-Hewitt broth (Carl Roth, Karlsruhe, Germany) supplemented with 0.3% of yeast extract (AppliChem, Darmstadt, Germany). In a second experiment, the photosensitizers (PS) used were dissolved in Millipore water and adjusted to various concentrations. 25 μL of a bacterial suspension grown overnight ( 108/mL) was incubated with 25 μL of photosensitizer solution of the various concentrations at room temperature for 10 seconds in darkness in a 96-well plate. Next, the suspension was irradiated for 5-20 minutes. For the irradiation, the light source BlueV from […], Germany) was used, which emits light from 380 to 480 nm (emission maximum at approximately 420 nm). The applied energy density was 17.5 mW/cm^2. Each experiment was accompanied by three controls in order to exclude side effect of the irradiation/photosensitizer (PS) on the survival of the bacteria: (i) no PS, only light (=light control), (ii) no light, only PS (=dark control) and (iii) neither light nor PS (=reference control). […] All of the tests were carried out four times. […] All of the remaining PS were tested against S. aureus ATCC 25923 (FIGS. 24-33). FIGS. 21-33 show the logarithmic reduction after illumination with respect to the reference control. […] The irradiation period was 5 minutes (emission maximum at approximately 420 nm) for an applied intensity of 17.5 mW/cm^2, i.e. an applied light energy (dosage) of 5.3 J/cm^2. The average reference control (arithmetic mean with standard deviation) (no light, no PS) was 3.9×10^8/mL. The logarithmic reduction after illumination is shown with respect to the reference control.

Assay [2] deals with E. coli ATCC 25922. As to the kind of experiment: Phototoxicity test c.1) (LED array 430-435 nm, CFU count by Miles and Misra). In kind it is cell-based, Escherichia coli. The following applies: light dose 33.8 J/cm^2, approx. 435 nm, 60 min at 9.4 mW/cm^2, vs reference control. The method, then: A sample of the bacterial cell Staphylococcus. aureus (ATCC number: 25923) or Escherichia. coli (ATCC number: 25922) was removed from a cryo-freeze culture and cultured under aerobic conditions at 37° C. and 175 rpm overnight in an orbital shaker (MAXQ4000, Thermo Scientific, Dubuque, Iowa, USA). Growth was carried out in 20 mL Todd-Hewitt broth (Carl Roth, Karlsruhe, Germany) supplemented with 0.3% of yeast extract (AppliChem, Darmstadt, Germany).
Subsequently, dilutions (0, 5, 10, […] and 20% v/v of the overnight culture) and their absorptions were measured at 600 nm in triplicate for 100 μL (Infinite 200 M Pro, Tecan, Mannedorf, Switzerland). A calibration graph (Microsoft Excel) was used to calculate the volume which was required to produce 20 mL of a culture with an absorption of 0.05 at 600 nm. The volume calculated for the overnight culture was topped up with Todd-Hewitt broth (composition as above) to 20 mL and incubated for two hours at 37° C. with constant movement (175 rpm, MAXQ4000). The cultures were then in the exponential growth phase; the absorption at 600 nm was between 0.3 and 0.45.
A 2-hour culture was divided into 1800 μL aliquots. After centrifuging at 20° C., 830 rcf, 5 min (5417R centrifuge, Eppendorf, Hamburg, Germany), the pellets were re-suspended in phosphate buffer (Dulbeccos' Modified Phosphate Saline, DPBS, Sigma-Aldrich) with either 10 or 50 μM of the corresponding photosensitizer, wherein the final volume was kept at 1800 μL.
The solutions obtained were immediately incubated on the orbital shaker (see above for parameters) for 5 or 25 minutes.
Three controls were run at the same time for each photosensitizer. The “light only” control contained DPBS without photosensitizer. The “photosensitizer only” (“PS only”) control was incubated like the PDI samples, but not irradiated and kept strictly in darkness. A further control (double negative, “Co−/−”), received neither light nor photosensitizer.
After the incubation, duplicates of the samples (500 μL each) were transferred into a 24-well microtitre plate (Cellstar, Greiner Bio-One, Frickenhausen, Germany). The “PS only” and “Co −/−” samples were placed in their own microtitre plate which was packed in aluminium foil so as to be lightproof.
The irradiation was carried out under constant shaking (MTS4, IKA, Staufen, Germany, 175 rpm) from below on a LED array with maximum homogeneity of the lighting surface. All of the controls were shaken in the same manner. The technical data for the light source are shown in Table 2; the total dose of light applied was 33.8 J/cm^2.
The determination of the colony forming units (CFU) was carried out in accordance with the method published by Miles and Misra (Miles, A A; Misra, S S, Irwin, J O (1938 Nov.). “The estimation of the bactericidal power of the blood” The Journal of hygiene 38 (6): 732-49). In this regard, serial dilutions (1:10) of the corresponding bacterial suspension were produced in DPBS. 5×10 μL of each bacterial dilution was then dripped onto Todd-Hewitt plates (with broth, additional 1.5% agar (Agar-Agar, Kobe I, Roth, Karlsruhe, Germany) and incubated at 37° C. for 24 h. Next, the number of surviving colony forming units was determined. All of the tests were carried out four times.
The photosensitizers were tested against the bacterial strain E. coli ATCC 25922. FIGS. 1-20 show the measured surviving colony forming units (CFU).
The average reference control (arithmetic mean with standard deviation) (no light, no PS) was 3.6×10^8/mL. The logarithmic reduction after illumination is shown with respect to the reference control. The respective upper value, indicated by a *, refers to an incubation period of 5 min and the respectively lower value, indicated by a #, refers to an incubation period of 25 min.

Where [3] appears, read: 10 μM, irradiation 5 minutes, approx. 420 nm, 17.5 mW/cm^2, 5.3 J/cm^2, vs reference control.
[4] abbreviates: 50 μM, irradiation 5 minutes, approx. 420 nm, 17.5 mW/cm^2, 5.3 J/cm^2, vs reference control.
The mark [5] stands for this setting: irradiation 5 minutes, approx. 420 nm, 17.5 mW/cm^2, 5.3 J/cm^2, vs reference control.
[6] abbreviates: incubation period 5 min (upper value, *).
[7] abbreviates: incubation period 25 min (lower value).

Counter-ions that a name gives are not always drawn. Like-named read-outs stand apart in the source and are kept apart here. Marks after values point to notes of the source that are not given here.

With `COc1cc(/C=C/C(=O)C(C)C(=O)/C=C/c2ccc(OCCN)c(OC)c2)ccc1OCCN` [Curcumin 09a hydrochloride], in assay [1] (setting [3]), the log reduction at 10 µM is above 2. For the same compound, the log reduction at 50 µM in assay [1] (setting [4]) was above 5.

Take `COc1ccc(/C=C/C(=O)C(CCN)C(=O)/C=C/c2ccc(OC)c(OC)c2)cc1OC.Cl` [Curcumin 11a hydrochloride]: in assay [1] (setting [5]), the “Effectiveness against S. aureus: Reduction in CFU in log10 at concentration of 100 μM” value is recorded as above 2 log10 and the “Effectiveness against S. aureus: Reduction in CFU in log10 at concentration of 250 μM” value is above 5 log10. Besides, the log reduction at 50 µM in assay [1] (setting [4]) is above 1.

In the case of `Cl.Cl.NCCOc1ccc2cc(/C=C/C(=O)CC(=O)/C=C/c3ccc4cc(OCCN)ccc4c3)ccc2c1` [Curcumin 12b hydrochloride], in assay [1] (setting [5]), the “Effectiveness against S. aureus: Reduction in CFU in log10 at concentration of 100 μM” value is reported as around 2 log10 and the “Effectiveness against S. aureus: Reduction in CFU in log10 at concentration of 250 μM” value is reported as above 3 log10. Moreover, the log reduction at 50 µM in assay [1] (setting [4]) was above 1.

In the case of `COc1ccc(/C=C/C(=O)C(CCN)C(=O)/C=C/c2ccc(OC)c(OCCN)c2)cc1OCCN` [Curcumin 13a hydrochloride], the log reduction at 10 µM in assay [1] (setting [3]) is above 1. In assay [1] (setting [4]), the log reduction at 50 µM was above 5.

Take `COc1cc(/C=C/C(=O)C(C)C(=O)/C=C/c2ccc(OCCN)c(OCCN)c2)ccc1OCCN` (stereo not shown) [Curcumin 13c hydrochloride]: in assay [1] (setting [3]), the log reduction at 10 µM was above 1. Moreover, in assay [1] (setting [4]), the log reduction at 50 µM is above 5.

In the case of `COc1cc(/C=C(\C)C(=O)CC(=O)/C(C)=C/c2ccc(OCCN)c(OC)c2)ccc1OCCN.Cl.Cl` [Curcumin 14a hydrochloride], in assay [1] (setting [5]), the “Effectiveness against S. aureus: Reduction in CFU in log10 at concentration of 100 μM” value was above 2 log10 and the “Effectiveness against S. aureus: Reduction in CFU in log10 at concentration of 250 μM” value was above 3 log10. Also, in assay [1] (setting [4]), the log reduction at 50 µM is above 1.

For `COc1cc(/C=C/C(=O)CC(=O)/C=C/c2ccc(OCCC[P+](C)(C)C)c(OC)c2)ccc1OCCC[P+](C)(C)C` [Curcumin 15a hydrochloride, 3,3′-(4,4′-((1E,6E)-3,5-dioxohepta-1,6-diene-1,7-diyl)bis(2-methoxy-4,1-phenylene))bis(oxy)bis(trimethylpropan-1-phosphonium) chloride], the log reduction at 10 µM in assay [1] (setting [3]) was around 1. For the same compound, in assay [1] (setting [4]), the log reduction at 50 µM was above 5.

For the compound `COc1cc(/C=C/C(=O)CC(=O)/C=C/c2ccc(OCCC[P+](c3ccccc3)(c3ccccc3)c3ccccc3)c(OC)c2)ccc1OCCC[P+](c1ccccc1)(c1ccccc1)c1ccccc1` [Curcumin 15b hydrochloride, 3,3′-(4,4′-((1E,6E)-3,5-dioxohepta-1,6-diene-1,7-diyl)bis(2-methoxy-4,1-phenylene))bis(oxy)bis(triphenylpropan-1-phosphonium) chloride], in assay [1], the log reduction at 10 µM is above 4 and the log reduction at 50 µM is above 5.

Regarding “(1E,6E)1,7- bis(4-(2- aminoethoxy)-3- methoxy- phenyl)hepta-1,6- diene-3,5-dione hydrochloride BF2 complex [Curcumin 01a BF-complex]”, the “Effectiveness against S. aureus: Reduction in CFU in log10 at concentration of 10 μM” value in assay [1] (setting [3]) is given as above 5 log10. For the same compound, the “Effectiveness against S. aureus: Reduction in CFU in log10 at concentration of 50 μM” value in assay [1] (setting [4]) is reported as above 5 log10.

As for “Bis[(1E,6E)-1,7- bis(4-(2- aminoethoxy)-3- methoxy- phenyl)hepta-1,6- diene-3,5-dione hydrochloride] boron complex [Roseo-curcumin 01a hydrochloride]”, in assay [2] (setting [6]), the “Effectiveness against E. Coli: Reduction in CFU in log10 at concentration of 10 μM” value is given as >5* log10 and the “Effectiveness against E. Coli: Reduction in CFU in log10 at concentration of 50 μM” value is >7* log10. For the same compound, in assay [2] (setting [7]), the “Effectiveness against E. Coli: Reduction in CFU in log10 at concentration of 10 μM” value is listed as above 5 log10 and the “Effectiveness against E. Coli: Reduction in CFU in log10 at concentration of 50 μM” value is given as above 6 log10.
